Reference: patent publication US7638515B2, “Tetrahydronaphthalene derivatives, process for their production and their use as anti-inflammatory agents” (Bayer Schering Pharma Aktiengesellschaft, priority 2003, dated 2009)

Molecular target: T1, glucocorticoid receptor (GR) (Homo sapiens, UniProt P04150)
T1 construct: made in house; host or cells: Sf9 cells infected with recombinant baculovirus (cytosol preparation)
T1 sequence (P04150 1-777): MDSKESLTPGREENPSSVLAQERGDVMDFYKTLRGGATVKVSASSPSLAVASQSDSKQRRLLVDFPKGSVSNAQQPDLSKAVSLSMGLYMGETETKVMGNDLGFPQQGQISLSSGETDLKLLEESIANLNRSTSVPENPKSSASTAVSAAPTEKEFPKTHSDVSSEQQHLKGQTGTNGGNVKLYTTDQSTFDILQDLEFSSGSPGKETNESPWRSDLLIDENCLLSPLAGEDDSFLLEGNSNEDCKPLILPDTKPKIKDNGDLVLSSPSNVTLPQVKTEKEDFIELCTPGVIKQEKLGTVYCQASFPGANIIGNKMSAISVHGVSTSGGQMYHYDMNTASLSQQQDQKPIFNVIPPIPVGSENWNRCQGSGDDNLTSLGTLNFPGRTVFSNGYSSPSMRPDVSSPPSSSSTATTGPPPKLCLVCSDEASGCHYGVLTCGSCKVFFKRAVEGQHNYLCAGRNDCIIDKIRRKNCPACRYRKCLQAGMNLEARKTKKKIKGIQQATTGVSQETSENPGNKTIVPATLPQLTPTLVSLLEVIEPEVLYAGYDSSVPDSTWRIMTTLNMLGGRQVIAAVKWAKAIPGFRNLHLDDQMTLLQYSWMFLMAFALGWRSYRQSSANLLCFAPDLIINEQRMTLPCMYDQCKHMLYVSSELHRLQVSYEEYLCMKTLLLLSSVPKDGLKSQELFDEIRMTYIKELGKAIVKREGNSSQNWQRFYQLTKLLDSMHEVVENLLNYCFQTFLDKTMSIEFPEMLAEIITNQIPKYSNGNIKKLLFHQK
Test: Binding to the glucocorticoid receptor, recombinantly produced receptor, cytosol preparations of Sf9 cells
Details: reference substance [3H]-dexamethasone
Excerpt: (§1) The binding of the substances to the glucocorticoid receptor (GR) and other steroid-hormone receptors (mineral corticoid receptor (MR), progesterone receptor (PR) and androgen receptor (AR)) is examined with the aid of recombinantly produced receptors. Cytosol preparations of Sf9 cells, which had been infected with recombinant baculoviruses that code for the GR, are used for the binding studies. In comparison to the reference substance [^3H]-dexamethasone, the substances show a high affinity to the GR.
Compound `CC1(C)CC(O)(C(F)(F)F)C(Nc2cccc3[nH]ncc23)c2cc(F)cc(O)c21` (centres unmarked) [Example 49, 7-Fluoro-1-[(1H-indazol-4-yl)amino]-4,4-dimethyl-2-(trifluoromethyl)-1,2,3,4-tetrahydronaphthalene-2,5-diol] has an IC50 of 95 nM.

Molecular target: T2, progesterone receptor (PR) (Homo sapiens, UniProt P06401)
T2 construct: made in house
T2 sequence (P06401 1-933): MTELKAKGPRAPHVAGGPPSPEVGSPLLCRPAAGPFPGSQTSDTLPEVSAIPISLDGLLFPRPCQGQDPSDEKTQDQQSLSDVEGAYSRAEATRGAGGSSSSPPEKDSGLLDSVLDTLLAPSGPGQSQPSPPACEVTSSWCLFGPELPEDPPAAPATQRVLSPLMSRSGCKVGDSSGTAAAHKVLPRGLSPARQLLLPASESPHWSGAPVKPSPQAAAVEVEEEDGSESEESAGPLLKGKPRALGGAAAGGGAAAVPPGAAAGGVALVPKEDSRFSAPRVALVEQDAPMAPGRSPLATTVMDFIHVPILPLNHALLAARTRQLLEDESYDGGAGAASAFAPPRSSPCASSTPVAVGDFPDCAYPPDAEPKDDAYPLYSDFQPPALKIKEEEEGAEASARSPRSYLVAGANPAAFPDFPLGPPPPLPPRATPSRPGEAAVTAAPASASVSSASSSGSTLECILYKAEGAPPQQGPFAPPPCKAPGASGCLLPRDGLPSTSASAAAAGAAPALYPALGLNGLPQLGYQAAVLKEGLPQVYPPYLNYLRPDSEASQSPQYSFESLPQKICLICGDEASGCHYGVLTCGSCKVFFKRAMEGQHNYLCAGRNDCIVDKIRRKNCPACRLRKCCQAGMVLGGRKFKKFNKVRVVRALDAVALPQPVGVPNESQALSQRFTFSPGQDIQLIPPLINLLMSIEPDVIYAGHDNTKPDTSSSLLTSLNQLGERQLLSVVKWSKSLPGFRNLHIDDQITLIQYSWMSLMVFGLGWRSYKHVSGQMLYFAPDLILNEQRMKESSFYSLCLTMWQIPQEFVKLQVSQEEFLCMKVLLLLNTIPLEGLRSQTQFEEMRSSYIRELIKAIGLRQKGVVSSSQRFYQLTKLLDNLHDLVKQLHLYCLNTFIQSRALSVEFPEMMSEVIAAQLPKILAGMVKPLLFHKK
Test: Binding to the progesterone receptor, recombinantly produced receptor
Details: not given
Excerpt: as §1
`CC1(C)CC(O)(C(F)(F)F)C(Nc2cccc3[nH]ncc23)c2cc(F)cc(O)c21` (centres unmarked) [Example 49, 7-Fluoro-1-[(1H-indazol-4-yl)amino]-4,4-dimethyl-2-(trifluoromethyl)-1,2,3,4-tetrahydronaphthalene-2,5-diol] gave an IC50 of 460 nM.

Tested on: secretion of cytokine IL-8 in the human monocyte cell line THP-1
Test: Inhibition of LPS-triggered secretion of cytokine IL-8 in THP-1 cells (ELISA)
Type: cell-based
Details: THP-1, supernatant ELISA, read-out: IC50(IL8)
Experimental: The concentration of the cytokines was determined in the supernatant by means of commercially available ELISA kits.
For `CC1(C)CC(O)(C(F)(F)F)C(Nc2cccc3[nH]ncc23)c2cc(F)cc(O)c21` (centres unmarked) [Example 49, 7-Fluoro-1-[(1H-indazol-4-yl)amino]-4,4-dimethyl-2-(trifluoromethyl)-1,2,3,4-tetrahydronaphthalene-2,5-diol], the IC50 was 19 nM.

Tested on: not given
Test: not given
Details: not given
Compound `CC1(C)CC(O)(C(F)(F)F)C(Nc2cccc3[nH]ncc23)c2c(F)ccc(F)c21` (racemic) [Example 105, Rac.-5,8-Difluoro-1-[(1H-indazol-4-yl)amino]-4,4-dimethyl-2-(trifluoromethyl)-1,2,3,4-tetrahydronaphthalen-2-ol] has a melting point of 209 to 221 °C. `CC1(C)CC(O)(C(F)(F)F)C(Nc2cccc3[nH]c(=O)ccc23)c2cc(O)c(Cl)cc21` (centres unmarked) [Example 134, 5-(6-Chloro-2,7-dihydroxy-4,4-dimethyl-2-(trifluoromethyl)-1,2,3,4-tetrahydronaphthalen-1-ylamino)-1H-quinolin-2-one] gave a melting point of 158 °C. Work on `COc1ccc2c(c1)C(Nc1ccc(F)c3nc(C)ncc13)C(O)(C(F)(F)F)CC2(C)C` (centres unmarked) [Example 135, 1-(8-Fluoro-2-methylquinazolin-5-ylamino)-7-methoxy-4,4-dimethyl-2-(trifluoromethyl)-1,2,3,4-tetrahydronaphthalen-2-ol] yielded a melting point of 97 °C. In the case of `COc1ccc2c(c1)C(Nc1cccc3[nH]c(=O)ccc13)C(O)(C(F)(F)F)CC2(C)C` (centres unmarked) [Example 136, 5-(2-Hydroxy-7-methoxy-4,4-dimethyl-2-(trifluoromethyl)-1,2,3,4-tetrahydronaphthalen-1-ylamino)-1H-quinolin-2-one], the melting point is reported as 128 °C. `COc1ccc2c(c1)C(Nc1cccc3c(=O)[nH]ccc13)C(O)(C(F)(F)F)CC2(C)C` (centres unmarked) [Example 137, 5-(2-Hydroxy-7-methoxy-4,4-dimethyl-2-(trifluoromethyl)-1,2,3,4-tetrahydronaphthalen-1-ylamino)-2H-isoquinolin-1-one] showed a melting point of 112 °C. For `COc1ccc2c(c1)C(Nc1cccc3c(=O)[nH]ncc13)C(O)(C(F)(F)F)CC2(C)C` (centres unmarked) [Example 138, 5-(2-Hydroxy-7-methoxy-4,4-dimethyl-2-(trifluoromethyl)-1,2,3,4-tetrahydronaphthalen-1-ylamino)-2H-phthalazin-1-one], the melting point was 197 °C. For `COc1ccc2c(c1)C(Nc1cccc3nc(C)ccc13)C(O)(C(F)(F)F)CC2(C)C` (centres unmarked) [Example 139, 7-Methoxy-4,4-dimethyl-1-(2-methylquinolin-5-ylamino)-2-(trifluoromethyl)-1,2,3,4-tetrahydronaphthalen-2-ol], the melting point was 85 °C. Work on `Cc1ccc2c(NC3c4cc(O)ccc4C(C)(C)CC3(O)C(F)(F)F)cccc2n1` (centres unmarked) [Example 140, 4,4-Dimethyl-1-(2-methylquinolin-5-ylamino)-2-(trifluoromethyl)-1,2,3,4-tetrahydronaphthalene-2,7-diol] yielded a melting point of 127 °C. `CC1(C)CC(O)(C(F)(F)F)C(Nc2cccc3c(=O)[nH]ncc23)c2cc(O)ccc21` (centres unmarked) [Example 141, 5-(2,7-Dihydroxy-4,4-dimethyl-2-(trifluoromethyl)-1,2,3,4-tetrahydronaphthalen-1-ylamino)-2H-phthalazin-1-one] gave a melting point of 116 °C. Compound `COc1cccc2c1CCC(O)(C(F)(F)F)C2Nc1cccc2[nH]c(=O)ccc12` (centres unmarked) [Example 144, 5-(2-Hydroxy-5-methoxy-2-(trifluoromethyl)-1,2,3,4-tetrahydronaphthalen-1-ylamino)-1H-quinolin-2-one] has a melting point of 228 °C. Work on `COc1cccc2c1CCC(O)(C(F)(F)F)C2Nc1ccc(F)c2nc(C)ncc12` (centres unmarked) [Example 145, 1-(8-Fluoro-2-methylquinazolin-5-ylamino)-5-methoxy-2-(trifluoromethyl)-1,2,3,4-tetrahydro-naphthalen-2-ol] yielded a melting point of 132 °C.
